Data as given in US20150335678A1, “METHOD OF ACTIVATING STEM CELLS IN AN ANIMAL AND THE USE OF CHLORINE DIOXIDE FOR PREPARING MEDICINES FOR ACTIVATING STEM CELLS IN AN ANIMAL” (priority 2012, published 2015).

Key:
rat = conditions: ClO2 276.5 mg/L, cited from earlier work
[1] = system: skin and eye mucous membrane; conditions: content of chlorine dioxide 9.7˜11.4 mg/L; 48 h; cited from earlier work
gastric ulcer = assay: hp-positive gastric ulcer patients: symptoms and ulcer healing by gastroscopy (Example 11); assay type: in vivo, human
Procedure: The subjects consisted of 90 gastric ulcer patients (50 male and 40 female) of hp-positive aged from 33 to 75 years old (average age: 41 years old). The subjects were randomly assigned to treatment group and control group with 30 patients in treatment group and 30 in control group 1 and 30 in control group 2 respectively.
Allow the solution to mix for 3-5 minutes. The capsule that containing activating agent of stem cells was made by injecting the mixed solution into the soft capsule of number 0.
The capsule that containing activating agent of stem cells was administered to the patients in treatment group three times a day and a pill each time; 30 minutes before meals, patients in control group 1 took orally 15 mg colloidal bismuth and 100 mg pectin tinidazole for three times a day. And 20 mg Omeprazole two times a day; patients in control group 2 took orally […] amoxicillin and 500 mg clindamycin three times a day and 20 mg esomeprazole twice a day before meals. Both groups were administered for a consecutive week. To observe the improvement of the clinical symptoms of the three cases two weeks after administration, such as stomachache, nausea and sour regurgitation. Gastroscopy and urease test of gastric antral mucosa were conducted after 30 days to observe ulcer healing and eradication of hp.
Criteria for measuring the effects: the changes of conditions before and after treatment and the time the symptoms disappear were recorded precisely. Diagnostic criteria are the followings: 1) complete healing: the symptoms disappear, such as ache, heartburn, nausea, sour regurgitation, abdominal distention; cure of ulceration under a gastroscope and the inflammation is gone; H pylori is negative. 2) Almost healing: subjective symptom disappear, and more than 90% ulceration are healed and the inflammation around is gone. 3) Effective: more than half of the ulcer surface shrink or more than half of ulceration reduced; 4) Ineffective: less than half of the ulceration are healed or haven't been changed, or even the ulcer surface or ulceration increase. To conduct rapid urease test by taking one sample of gastric mucosa at antrum of stomach and gastric body respectively, if the results are negative, it means Hp negative conversing.

[2] = system: GFAP-positive cells (astrocytes), NeuN-positive cells (immature neurons); assay: NeuN-positive, GFAP-positive and BrdU-positive/GFAP-positive cells in the SVZ region; assay type: in vivo, Sprague-Dawley rats
Procedure: Male Sprague-Dawley rats with the age of 12 weeks and weight of 250^˜280 g were used in the experiment after acclimating for a week.
A middle cerebral artery occlusion model was first established in compliance with the method of Longa E Z et al. (Longa E Z, et al. Reversible middle cerebral artery occlusion without craniectomy in rats. Stroke 20:84-91, 1989). More specifically, 0.36 g/kg of 10% chloral hydrate was administered intraperitoneally to rats which had been fasted for 12 hours (although given free access to water) to anesthetize the rats. Next, a midline incision was made in the neck to expose the right common carotid artery. Then, the internal carotid artery and external carotid artery were separated, the posterior carotid artery, which is a branch of the external carotid artery, and the thyroidea arteria were coagulated and severed, the external carotid artery was ligated at the branch of the lingual artery and maxillary artery, a small puncture was formed in the external carotid artery, 4-0 Nylon suture was passed through the common carotid artery from the puncture, and gradually inserted into the internal carotid artery until there was resistance. The length of the Nylon suture was about 18^˜20 mm from the branch of the common carotid artery. As a result of occluding the middle cerebral artery with Nylon suture, an ischemic state was applied for 2 hours to create a middle cerebral artery occlusion model.
A cerebral ischemia/reperfusion injury model was established by removing the Nylon suture from the middle cerebral artery of the occlusion model and following reperfusion of blood.
The first solution was a mixed solution made of sodium chlorite with the concentration of 7.47% and sodium chloride with the concentration of 1.59% with deionized water; the second solution was made of citric acid with the concentration of 16.7% with deionized water. Same volume of solutions were taken out from different vessels with different volumes and mixed up. Allow the solution to mix for 3-5 minutes and dilute it five times with normal saline, and then filter it with 0.22 μm filter membrane of double-deck. The solution was immediately put into injector. The solution was prepared once being used.
Treatment group (120 rats): A cerebral ischemia/reperfusion injury model was established for the rats already. To administer chlorine dioxide solution everytime that prepared from procedure (3) through carotid artery after the second day the model has established, once a day for total ten days.
On day 5, 6, 12, 13, 19 and 20 after the model established, 50 mg/kg BrdU was injected intraperitoneally into 30 rats in each group. The rats were autopsied on day 7, 14 and 21 after the model established for preparation of frozen brain sections. The presences of NeuN-positive cells by immunochemical stain, glial fibrillory acidic protein (GFAP)-positive cells by immunochemical stain, and BrdU-Positive/GFAP Positive Cells by double-immunofluorescent stain in the SVZ region were analyzed. NeuN is a marker expressed on the immature neurons which are differentiated from neural stem cells. GFAP is a marker expressed on astrocytes which are also differentiated from neural stem cells.
The presence of NeuN-positive cells was analyzed using goat anti-NeuN monoclonal antibody. The presence of GFAP-positive cells was analyzed using goat anti-GFAP polyclonal antibody. The presence of BrdU-positive/GFAP-positive cells was analyzed by double-immunofluorescent stain using a combination of primary antibody of mouse anti-rat BrdU monoclonal antibody and secondary antibody of Rho-labeled rabbit anti-mouse antibody, and a combination of primary antibody of goat anti-GFAP polyclonal antibody and secondary antibody of FITC-labeled rabbit anti-goat antibody.
BRt(%)=(Bt−St)/(Mt−St)×100

[O][Cl+][O-] [chlorine dioxide solution, chlorine dioxide]
accumulative toxicity classification of aqueous solution (rat; NaClO2 200 mg/L, NaClO3): non-obvious accumulative toxic | toxicity classification of aqueous solution (rat; NaClO2 and NaClO3 200 mg/L, ClO2 mixed solution total concentration 553 mg/L): actually non-toxic | stimulation score to skin and eye mucous membrane [1]: 0 | Symptoms disappear after a week (No.) (gastric ulcer; 30 hp-positive gastric ulcer patients per group, administered for a consecutive week, test capsule NaClO2 20%/NaCl 5% + citric acid 30% 1:1, one pill three times a day): 30 | Effective after 30 d (%) (gastric ulcer; 30 patients per group): 3.3% | Healing after 30 d (%) (gastric ulcer; 30 patients per group): 3.3% | Symptoms disappear after a week (%) (gastric ulcer; 30 patients per group, administered for a consecutive week): 100% | Healing after 30 d (No.) (gastric ulcer; 30 patients per group, almost healing: more than 90% ulceration healed): 1 | Complete healing after 30 d (%) (gastric ulcer; 30 patients per group, gastroscopy): 93.3% | Complete healing after 30 d (No.) (gastric ulcer; 30 patients per group, gastroscopy, administered for a consecutive week): 28 | Effective after 30 d (No.) (gastric ulcer; 30 patients per group, more than half of ulcer surface shrink): 1 | BRt: GFAP-positive cells in treatment group relative to model group = 100% ([2]; Day 7): 148.4% | number of GFAP-positive cells in the SVZ (mean±SD) ([2]; Day 7, model group 66.3 ± 21.3, sham 2.5 ± 0.15, diluted solution via carotid artery once a day, ten days): 97.2 ± 29.3 No. of cells/mm2 | BRt: GFAP-positive cells in treatment group relative to model group = 100% ([2]; Day 14): 134.3% | number of GFAP-positive cells in the SVZ (mean±SD) ([2]; Day 14, model group 58.6 ± 16.5, sham 1.39 ± 0.02): 78.2 ± 19.6 No. of cells/mm2 | BRt: GFAP-positive cells in treatment group relative to model group = 100% ([2]; Day 21): 162.4% | number of GFAP-positive cells in the SVZ (mean±SD) ([2]; Day 21, model group 27.9 ± 12.4, sham 0): 45.3 ± 18.3 No. of cells/mm2 | presence of NeuN-positive cells (immature neurons) ([2]; treatment group, data not shown): confirmed | presence of BrdU-positive/GFAP-positive cells in the SVZ region ([2]; treatment group, double-immunofluorescent stain, data not shown): confirmed
